Assays:
[1] = test system: Puccinia recondita f. Sp. Tritici; test: Puccinia recondita f. sp. tritici / wheat / leaf disc curative (brown rust); assay type: in vivo; conditions: foliar, 200 ppm in the applied formulation, wheat leaf segments, curative (applied 1 day after inoculation), assessed 6 to 8 days after application, read-out: disease control compared to untreated control leaf disks
In short: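 Wheat cv. Kanzler leaf segments on agar were inoculated with spores, kept dark at 19° C, 75% RH, then sprayed with diluted formulated compound 1 day after inoculation (curative). Incubation continued at 19° C, 75% RH, 12 h light/12 h dark, with percent disease control versus untreated scored 6 to 8 days after application.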

[2] = test system: Puccinia recondita f. Sp. Tritici; test: Puccinia recondita f. sp. tritici / wheat / leaf disc preventative (brown rust); assay type: in vivo; conditions: foliar, 200 ppm in the applied formulation, wheat leaf segments, preventative, assessed 7 to 9 days after application, read-out: disease control compared to untreated control leaf disks
In short: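 Wheat cv. Kanzler leaf segments on agar sprayed with formulated compound in water, inoculated with rust spores 1 day later. Incubated at 19° C, 75% rh, 12 h light/12 h dark; percent disease control versus untreated scored 7 to 9 days after application; tested at 200 ppm.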

[3] = test system: Phakopsora pachyrhizi; test: Phakopsora pachyrhizi / soybean / leaf disc preventative (Asian soybean rust); assay type: in vivo; conditions: foliar, 200 ppm in the applied formulation, soybean leaf disks, assessed 12 to 14 days after application, read-out: disease control compared to untreated control leaf disks
In short: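 Soybean leaf discs on water agar were sprayed with formulated compound diluted in water, then inoculated one day later with spore suspension on the lower leaf surface. Held 24-36 h dark at 20° C., 75% RH, then 12 h light/day; percent disease control versus untreated scored 12 to 14 days after application.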

[4] = test system: Glomerella lacenarium (Colletotrichum lacenarium); test: Glomerella lacenarium (Colletotrichum lacenarium) liquid culture / cucumber / preventative (anthracnose); assay type: cell-based; conditions: 20 ppm in the applied formulation, liquid culture in PDB, 24° C., 3 to 4 days after application, read-out: disease control (inhibition of growth, photometric) compared to untreated control
In short: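 Cryostored conidia in potato dextrose broth added to DMSO compound solution in microtiter plates, incubated at 24° C. Growth inhibition read photometrically 3 to 4 days after application, as percent control versus untreated check; compounds tested at 20 ppm.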

CCC(=O)C(=O)NCc1ccc(-c2noc(C(F)(F)F)n2)c(F)c1F [Compound 1.80, N-[[2,3-difluoro-4-[5-(trifluoromethyl)-1,2,4-oxadiazol-3-yl]phenyl]methyl]-2-oxo-butanamide]
≥ 80%: pest or weed control at 200 ppm [1] | pest or weed control at 200 ppm [2] | pest or weed control at 200 ppm [3] | inhibition at 20 ppm [4]

O=C(NCc1ccc(-c2noc(C(F)(F)F)n2)cc1)C(=O)c1ccco1 [Compound 1.82, 2-(2-furyl)-2-oxo-N-[[4-[5-(trifluoromethyl)-1,2,4-oxadiazol-3-yl]phenyl]methyl]acetamide]
≥ 80%: pest or weed control at 200 ppm [1] | pest or weed control at 200 ppm [2] | pest or weed control at 200 ppm [3] | inhibition at 20 ppm [4]

CON(Cc1ccc(-c2noc(C(F)(F)F)n2)cc1F)C(=O)C(=O)c1ccco1 [Compound 1.83, N-[[2-fluoro-4-[5-(trifluoromethyl)-1,2,4-oxadiazol-3-yl]phenyl]methyl]-2-(2-furyl)-N-methoxy-2-oxo-acetamide]
≥ 80%: pest or weed control at 200 ppm [1] | pest or weed control at 200 ppm [2] | pest or weed control at 200 ppm [3] | inhibition at 20 ppm [4]

CC(=O)C(=O)NCc1c(F)cc(-c2noc(C(F)(F)F)n2)cc1F [Compound 1.87, N-[[2,6-difluoro-4-[5-(trifluoromethyl)-1,2,4-oxadiazol-3-yl]phenyl]methyl]-2-oxo-propanamide]
≥ 80%: pest or weed control at 200 ppm [1] | pest or weed control at 200 ppm [2] | pest or weed control at 200 ppm [3] | inhibition at 20 ppm [4]

O=C(NCc1c(F)cc(-c2noc(C(F)(F)F)n2)cc1F)C(=O)c1ccco1 [Compound 1.88, N-[[2,6-difluoro-4-[5-(trifluoromethyl)-1,2,4-oxadiazol-3-yl]phenyl]methyl]-2-(2-furyl)-2-oxo-acetamide]
≥ 80%: pest or weed control at 200 ppm [1] | pest or weed control at 200 ppm [2] | pest or weed control at 200 ppm [3] | inhibition at 20 ppm [4]

CCC(=O)C(=O)N(Cc1ccc(-c2noc(C(F)(F)F)n2)cc1)OC [Compound 1.89, N-methoxy-2-oxo-N-[[4-[5-(trifluoromethyl)-1,2,4-oxadiazol-3-yl]phenyl]methyl]butanamide]
≥ 80%: pest or weed control at 200 ppm [1] | pest or weed control at 200 ppm [2] | pest or weed control at 200 ppm [3] | inhibition at 20 ppm [4]

CON(Cc1ccc(-c2noc(C(F)(F)F)n2)cc1)C(=O)C(=O)c1ccco1 [Compound 1.90, 2-(2-furyl)-N-methoxy-2-oxo-N-[[4-[5-(trifluoromethyl)-1,2,4-oxadiazol-3-yl]phenyl]methyl]acetamide]
≥ 80%: pest or weed control at 200 ppm [1] | pest or weed control at 200 ppm [2] | pest or weed control at 200 ppm [3] | inhibition at 20 ppm [4]

CC(=O)C(=O)N(Cc1ccc(-c2noc(C(F)(F)F)n2)cc1)C1CC1 [Compound 1.91, N-cyclopropyl-2-oxo-N-[[4-[5-(trifluoromethyl)-1,2,4-oxadiazol-3-yl]phenyl]methyl]propanamide]
≥ 80%: pest or weed control at 200 ppm [1] | pest or weed control at 200 ppm [2] | pest or weed control at 200 ppm [3] | inhibition at 20 ppm [4]

O=C(C(=O)N(Cc1ccc(-c2noc(C(F)(F)F)n2)cc1)C1CC1)C1CC1 [Compound 1.92, N,2-dicyclopropyl-2-oxo-N-[[4-[5-(trifluoromethyl)-1,2,4-oxadiazol-3-yl]phenyl]methyl]acetamide]
≥ 80%: pest or weed control at 200 ppm [1] | pest or weed control at 200 ppm [2] | pest or weed control at 200 ppm [3] | inhibition at 20 ppm [4]

CCN(Cc1ccc(-c2noc(C(F)(F)F)n2)cc1)C(=O)C(=O)C1CC1 [Compound 1.93, 2-cyclopropyl-N-ethyl-2-oxo-N-[[4-[5-(trifluoromethyl)-1,2,4-oxadiazol-3-yl]phenyl]methyl]acetamide]
≥ 80%: pest or weed control at 200 ppm [1] | pest or weed control at 200 ppm [2] | pest or weed control at 200 ppm [3] | inhibition at 20 ppm [4]

CN(Cc1ccc(-c2noc(C(F)(F)F)n2)cc1)C(=O)C(=O)C1CC1 [Compound 1.94, 2-cyclopropyl-N-methyl-2-oxo-N-[[4-[5-(trifluoromethyl)-1,2,4-oxadiazol-3-yl]phenyl]methyl]acetamide]
≥ 80%: pest or weed control at 200 ppm [1] | pest or weed control at 200 ppm [2] | pest or weed control at 200 ppm [3] | inhibition at 20 ppm [4]

CC(C)C(=O)C(=O)N(C)Cc1ccc(-c2noc(C(F)(F)F)n2)cc1 [Compound 1.95, N,3-dimethyl-2-oxo-N-[[4-[5-(trifluoromethyl)-1,2,4-oxadiazol-3-yl]phenyl]methyl]butanamide]
≥ 80%: pest or weed control at 200 ppm [1] | pest or weed control at 200 ppm [2] | pest or weed control at 200 ppm [3] | inhibition at 20 ppm [4]

CCN(Cc1ccc(-c2noc(C(F)(F)F)n2)cc1)C(=O)C(=O)C(C)C [Compound 1.96, N-ethyl-3-methyl-2-oxo-N-[[4-[5-(trifluoromethyl)-1,2,4-oxadiazol-3-yl]phenyl]methyl]butanamide]
≥ 80%: pest or weed control at 200 ppm [1] | pest or weed control at 200 ppm [2] | pest or weed control at 200 ppm [3] | inhibition at 20 ppm [4]

CC(C)C(=O)C(=O)N(Cc1ccc(-c2noc(C(F)(F)F)n2)cc1)C1CC1 [Compound 1.97, N-cyclopropyl-3-methyl-2-oxo-N-[[4-[5-(trifluoromethyl)-1,2,4-oxadiazol-3-yl]phenyl]methyl]butanamide]
≥ 80%: pest or weed control at 200 ppm [1] | pest or weed control at 200 ppm [2] | pest or weed control at 200 ppm [3] | inhibition at 20 ppm [4]

CCC(=O)C(=O)N(C)Cc1ccc(-c2noc(C(F)(F)F)n2)cc1 [Compound 1.98, N-methyl-2-oxo-N-[[4-[5-(trifluoromethyl)-1,2,4-oxadiazol-3-yl]phenyl]methyl]butanamide]
≥ 80%: pest or weed control at 200 ppm [1] | pest or weed control at 200 ppm [2] | pest or weed control at 200 ppm [3] | inhibition at 20 ppm [4]

CCC(=O)C(=O)N(CC)Cc1ccc(-c2noc(C(F)(F)F)n2)cc1 [Compound 1.99, N-ethyl-2-oxo-N-[[4-[5-(trifluoromethyl)-1,2,4-oxadiazol-3-yl]phenyl]methyl]butanamide]
≥ 80%: pest or weed control at 200 ppm [1] | pest or weed control at 200 ppm [2] | pest or weed control at 200 ppm [3] | inhibition at 20 ppm [4]

CCC(=O)C(=O)N(Cc1ccc(-c2noc(C(F)(F)F)n2)cc1)C1CC1 [Compound 1.100, N-cyclopropyl-2-oxo-N-[[4-[5-(trifluoromethyl)-1,2,4-oxadiazol-3-yl]phenyl]methyl]butanamide]
≥ 80%: pest or weed control at 200 ppm [1] | pest or weed control at 200 ppm [2] | pest or weed control at 200 ppm [3] | inhibition at 20 ppm [4]

From patent publication US20180370927A1, “MICROBIOCIDAL OXADIAZOLE DERIVATIVES” (SYNGENTA PARTICIPATIONS AG, priority 2015, published 2018)
